The values below come from patent publication US20260283999A1, “STAT3 INHIBITOR TO TREAT SU[…]” (UNIVERSITY OF FLORIDA RESEARCH FOUNDATION, INCORPORATED, priority 2022, published 2026).

Assay [1] relates to SAH model. Description: Cerebral blood flow by laser speckle perfusion imaging after SAH. It is filed as in vivo. The following applies: mice, 48 hours after SAH; 5 mg/kg repetitive dosing following SAH; FIG. 3. The procedure:
(§1) Studies were conducted wherein repetitive dosing on days 1, 2, and 3 following SAH occurred with 5 mg/kg of the p-STAT3 inhibitor. […] The STAT inhibitor used in these studies was LLL12B.
The SAH model utilized modified autologous blood injection to basal cisterns adjacent to right anterior circulation. [Dodd W S, Noda I, Martinez M, Hosaka K, Hoh BL. NLRP3 inhibition attenuates early brain injury and delayed cerebral vasospasm after subarachnoid hemorrhage. J Neuroinflammation. 2021; 18 (1): 163.]. Briefly, mice we anesthetized with 10 mg/kg xylazine and 100 mg/kg ketamine prior to shaving/cleaning the scalp. The tail was prepped, shaved, and cleaned. The mouse's head was fixed to the stereotaxic frame and body temperature maintained at 37° C. using a heating pad. […] The mouse's respiratory rate was closely monitored. […]
Four mice per group were utilized. Cerebral blood flow was measured with a laser speckle perfusion imager at 48 hours after SAH. […] Sufficient readings were able to be achieved without bone flap removal. […] Average perfusion per animal was documented and an imaging voxel with a calculated mean of 9.7 was used to measure bilateral MCA territory perfusion. A ratio of right to left MCA perfusion was calculated for each animal to allow reliable comparisons between groups and to control for variance in baseline blood pressure differences. […]

The subject of assay [2] is SAH model. Kind of assay: Immunohistochemistry of brain slices after SAH (p-STAT3, Arg1, Cox2, iNOS, TLR-4). The following applies: mice, following SAH; 5 mg/kg on days 1, 2, and 3 following SAH. It is filed as in vivo. Here is the method:
as §1
The SAH model utilized modified autologous blood injection to basal cisterns adjacent to right anterior circulation. [Dodd W S, Noda I, Martinez M, Hosaka K, Hoh BL. NLRP3 inhibition attenuates early brain injury and delayed cerebral vasospasm after subarachnoid hemorrhage. J Neuroinflammation. 2021; 18 (1): 163.]. Briefly, mice we anesthetized with 10 mg/kg xylazine and 100 mg/kg ketamine prior to shaving/cleaning the scalp. The tail was prepped, shaved, and cleaned. The mouse's head was fixed to the stereotaxic frame and body temperature maintained at 37° C. using a heating pad. The scalp was incised along the sagittal suture from bregma to the nasal bone. The skin was reflected and held in place by retraction. The burr hole was positioned 5.0 mm rostral to bregma and 0.5 mm right of midline. Next, 150 μL of arterial blood was drawn from the tail artery. 50 μL of blood was drawn up into a Hamilton syringe. The syringe needle was passed at a 30° caudal angle until it reached the skull base. The syringe was left in place and blood was manually injected at a rate of 10 μL/min. The mouse's respiratory rate was closely monitored. […]

Molecules are shown by their SMILES.

Consider `CN(C)C(=O)Oc1cccc2c1C(=O)c1cccc(S(N)(=O)=O)c1C2=O` [LLL12B], for which, in the assay with SAH model [1], the cerebral blood flow entry was “protective benefit for cerebral blood flow showing decreased risk for ischemia”. Further, in the assay with SAH model [2], the “systemic neuroinflammation (immunochemistry)” value is “reduces systemic neuroinflammation”.
